Laboratory results: publication PMC6534834 (Breast Cancer Research : BCR, 2019)
Like-named read-outs stand apart in the source and are kept apart here.

Key:
FGFR = conditions: at the RP2D; cited from earlier work
[1] = Nintedanib (BIBF1120-BS and metabolite BIBF1202-ZW) plasma pharmacokinetics (LC-MS/MS); assay type: in vivo, human; conditions: for Mean plasma concentration at steady state (day 29) compared with day 1: level 2; for Mean Cmax / Mean AUC0-last / Mean Tmax / Cmax / Tmax / AUC(0-t): nintedanib species in plasma; for Pharmacokinetic interaction: increase in plasma concentrations: nintedanib and letrozole co-administered, three- for nintedanib, twofold for letrozole (respective); for Cmax / Tmax / AUC(0-t): human, plasma, oral; for AUC(0-t): read-out: Mean AUC0-last
Cyp3A4 = conditions: cited from earlier work
aromatase [2] = target: T1, aromatase (Homo sapiens, UniProt P11511); parameters: endogenous in cells; host or cells: Tissues of the trial patients (in vivo); conditions: cited from earlier work; for Patients with 17-B-estradiol above the LLD: randomized 3-month crossover letrozole/anastrozole
T1 sequence (P11511 1-503): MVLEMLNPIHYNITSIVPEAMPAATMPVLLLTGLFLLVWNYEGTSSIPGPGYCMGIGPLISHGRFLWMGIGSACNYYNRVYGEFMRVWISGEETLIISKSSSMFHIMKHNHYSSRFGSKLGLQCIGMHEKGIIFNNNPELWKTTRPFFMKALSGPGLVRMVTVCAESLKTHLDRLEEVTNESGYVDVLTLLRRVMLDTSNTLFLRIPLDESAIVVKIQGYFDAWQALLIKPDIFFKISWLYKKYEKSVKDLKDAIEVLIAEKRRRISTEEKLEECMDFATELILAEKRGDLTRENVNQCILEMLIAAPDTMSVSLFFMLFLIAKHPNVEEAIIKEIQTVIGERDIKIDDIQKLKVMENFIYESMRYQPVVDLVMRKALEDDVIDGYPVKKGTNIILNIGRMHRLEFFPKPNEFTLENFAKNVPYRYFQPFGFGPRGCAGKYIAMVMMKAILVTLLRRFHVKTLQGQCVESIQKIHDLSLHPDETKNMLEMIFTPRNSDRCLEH

[3] = Letrozole plasma pharmacokinetics (UPLC-MS/MS); assay type: in vivo, human; conditions: letrozole in plasma; for Cmax / AUC(0-t) / Tmax: human, plasma, oral; for AUC(0-t): read-out: Mean AUC0-last
[4] = human, in vivo
aromatase [5] = target: T1, aromatase; assay: Plasma 17-B-estradiol level (clinical assay, LLD 5 pg/mL), pharmacodynamic marker of aromatase inhibition in patients; assay type: in vivo; parameters: endogenous in cells; host or cells: Tissues of the trial patients (in vivo)
[6] = tested on: tumors with FGFR gene alterations; conditions: cited from earlier work
[7] = level 1 (nintedanib 150 mg/bid + letrozole […]), day 1
[8] = level 2 (nintedanib 200 mg/bid + letrozole […]), day 1

In the case of `CCN1CCN(c2ccc(Nc3cc(N(C)C(=O)Nc4c(Cl)c(OC)cc(OC)c4Cl)ncn3)cc2)CC1` [BGJ398], the “Increase in FGF23 concentrations” value (FGFR) is listed as ~ 50%.
For `CN1CCN(CC(=O)N(C)c2ccc(N/C(=C3\C(=O)Nc4cc(C(=O)O)ccc43)c3ccccc3)cc2)CC1` [BIBF1202-ZW], the “Mean plasma concentration at steady state (day 29) compared with day 1” value [1] was “almost twofold higher”, the “Mean Cmax” value [1, 7] was 24 ng/mL and the “Mean AUC0-last” value ([1]; level 1, day 1) was 200 ng·h/mL. The “Mean Tmax” value ([1]; level 1, day 1) was 1.9 h, the “Mean AUC0-last” value ([1]; level 1, day 29) was 367 ng·h/mL and the “Mean Cmax” value ([1]; level 1, day 29) was 28 ng/mL. The “Mean Tmax” value ([1]; level 1, day 29) was 1.1 h, the “Mean Cmax” value [1, 8] was 41 ng/mL and the “Mean AUC0-last” value ([1]; level 2, day 1) was 413 ng·h/mL. The “Mean Tmax” value ([1]; level 2, day 1) was 3.3 h, the “Mean AUC0-last” value ([1]; level 2, day 29) was 824 ng·h/mL and the “Mean Cmax” value ([1]; level 2, day 29) was 67 ng/mL. For the same molecule, the “Mean Tmax” value ([1]; level 2, day 29) was 3.0 h.
In the case of `COc1cc(OC)cc(N(CCNC(C)C)c2ccc3ncc(-c4cnn(C)c4)nc3c2)c1` [JNJ-42756493], the “Increase in FGF23 concentrations” value (FGFR) is listed as ~ 20%.
For `CC(C)(C#N)c1cc(Cn2cncn2)cc(C(C)(C)C#N)c1` [anastrozole], the Metabolizing enzyme (Cyp3A4) is given as “metabolized by Cyp3A4”, the “Patients with plasma 17-B-estradiol concentrations below the LLD” value (aromatase [2]; n = 191) is given as 83% and the “Patients with 17-B-estradiol above the LLD” value (aromatase [2]) is given as 37%.
`N#Cc1ccc(C(c2ccc(C#N)cc2)n2cncn2)cc1` [letrozole] showed a Cmax ([3]; Level 1 (nintedanib 150 mg/bid + letrozole […]), day 1) of 100 ng/mL, an AUC(0-t) ([3]; Level 1, day 1) of 2200 ng·h/mL and a Cmax ([3]; Level 1, day 29) of 89.4 ng/mL. It also gave a Tmax ([3]; Level 1, day 29) of 4 h, an AUC(0-t) ([3]; Level 1, day 29) of 2060 ng·h/mL and a Cmax ([3]; Level 2 (nintedanib 200 mg/bid + letrozole […]), day 1) of 124 ng/mL. The Tmax ([3]; Level 2, day 1) was 4 h, the AUC(0-t) ([3]; Level 2, day 1) was 2780 ng·h/mL and the Cmax ([3]; Level 2, day 29) was 148 ng/mL. For the same molecule, the Tmax ([3]; Level 2, day 29) was 2 h, the AUC(0-t) ([3]; Level 2, day 29) was 3170 ng·h/mL and the “Mean Tmax” value ([3]; Level 1, day 1) was 0 h. For the same molecule, the “Pharmacokinetic interaction: increase in plasma concentrations” value [1] was “three- and twofold increases in their respective plasma concentrations”, the “Grade 3 toxic events attributed to letrozole” value [4] was “No grade 3 toxic events were attributed to letrozole” and the Metabolizing enzyme (Cyp3A4; no reference given) was “metabolized by Cyp3A4”. The “Patients with undetectable 17-B-estradiol levels (below LLD 5 pg/mL)” value (aromatase [5]; EOT visit, 4 weeks after ceasing nintedanib administration) was 100%, the “Patients with undetectable 17-B-estradiol levels (below LLD 5 pg/mL)” value (aromatase [5]; day 1 (baseline), letrozole alone […] for at least 4 weeks) was 87.5% and the “Suppression of aromatase activity” value (aromatase [2]; early letrozole trials) was greater than 95%. The “Patients with 17-B-estradiol above the LLD” value (aromatase [2]) was 2%.
In the case of `COC(=O)c1ccc2c(c1)NC(=O)/C2=C(\Nc1ccc(N(C)C(=O)CN2CCN(C)CC2)cc1)c1ccccc1` [nintedanib], the Cmax [1, 7] is reported as 51 ng/mL, the Tmax ([1]; level 1, day 1) is reported as 1.9 h and the AUC(0-t) ([1]; level 1, day 1) is reported as 339 ng·h/mL. It also gave a Cmax ([1]; level 1, day 29) of 50 ng/mL, a Tmax ([1]; level 1, day 29) of 1.1 h and an AUC(0-t) ([1]; level 1, day 29) of 519 ng·h/mL. For the same molecule, the Cmax [1, 8] was 65 ng/mL, the Tmax ([1]; level 2, day 1) was 2 h and the AUC(0-t) ([1]; level 2, day 1) was 599 ng·h/mL. For the same molecule, the Cmax ([1]; level 2, day 29) was 92 ng/mL, the Tmax ([1]; level 2, day 29) was 2 h and the AUC(0-t) ([1]; level 2, day 29) was 941 ng·h/mL. The “BIBF1120-BS AUC on day 29 compared with day 1” value ([1]; in vivo) was “almost twofold higher”, the “Mean plasma concentration at steady state (day 29) compared with day 1” value [1] was “almost twofold higher” and the “Pharmacokinetic interaction: increase in plasma concentrations” value [1] was “three- and twofold increases in their respective plasma concentrations”. For the same molecule, the “BIBF1120-BS AUC on day 29 compared with steady-state values reported in phase I studies” value ([1]; versus nintedanib monotherapy [28], with pemetrexed [27], or paclitaxel plus carboplatin [47]) was “two to threefold higher” and the Metabolizing enzyme (Cyp3A4; no reference given) was “metabolized by Cyp3A4”.
In the case of AZD4547, the Disease stabilization rate ([6]; MATCH arm W, patients with FGFR amplifications) is listed as 50% and the Response rate ([6]; arm W of the MATCH trial) is listed as 8%.
